Patent US20240287046A1, “COMPOUNDS AND RADIOLIGANDS FOR TARGETING NEUROTENSIN RECEPTOR AND USES THEREOF” (Full-Life Technologies HK Limited, priority 2022, published 2024)
Like-named read-outs stand apart in the source and are kept apart here.

Target: human NTSR-1 (Homo sapiens (Human), UniProt P30989)
Assay: radioligand competitive binding assay using ^177Lu labeled C-1 as reference radioligand
Settings: for Relative Binding Affinity: Mean IC50 of C-1/Mean IC50 of the test compound; for IC50: Nonlin fit, single assay, HT-29 cells
Description: The binding affinities of test compounds were determined by a radioligand competitive binding assay using ^177Lu labeled C-1 as the reference radioligand.
Briefly, 100 μL HT-29 cells expressing human NTSR-1 at a density of 1˜2×10^6 cells/mL were mixed with binding buffer (RPMI-1640 medium supplemented with 0.25% bovine serum albumin) in each well of the 96-well filter plate (Millipore). Then the cells in each well were incubated with ^177Lu—C-1 (0.55 μCi/well) and the test compound under 37° C. for 1 hr (n=3). After incubation, unbound ^177Lu—C-1 and the test compound in each well was removed by filtration using a Multiscreen vacuum manifold (Millipore) and the cells were further rinsed with the binding buffer for 5 times. The cells from each well were then collected and radioactivity of the cells in each well was individually measured by y counter (2480 WIZARD2, PerkinElmer). The best-fit IC50 value of test compounds (inhibitory concentration when 50% of the bound ^177Lu—C-1 on cells were displaced) were calculated by fitting the data with nonlinear regression using GraphPad Prism 8.0.1.

[1] = read-out: LogIC50 Mean (converted)

Chain of human NTSR-1 (P30989 whole entry): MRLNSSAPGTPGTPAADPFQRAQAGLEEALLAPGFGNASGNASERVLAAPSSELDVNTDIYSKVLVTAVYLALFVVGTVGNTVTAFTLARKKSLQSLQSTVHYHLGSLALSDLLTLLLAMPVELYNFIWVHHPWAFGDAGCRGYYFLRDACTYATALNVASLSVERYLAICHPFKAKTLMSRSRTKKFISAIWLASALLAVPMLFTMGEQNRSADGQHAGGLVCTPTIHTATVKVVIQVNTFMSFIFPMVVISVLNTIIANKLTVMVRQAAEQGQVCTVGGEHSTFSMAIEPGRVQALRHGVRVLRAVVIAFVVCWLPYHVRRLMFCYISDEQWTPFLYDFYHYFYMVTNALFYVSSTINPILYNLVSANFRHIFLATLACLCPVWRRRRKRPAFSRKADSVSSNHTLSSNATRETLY

| Relative Binding Affinity | binding affinity compared to comparator compound C-1 or C-3 (single radioligand competitive binding assay) | Compound | IC50 (read-out: IC50 (nM) Mean) | IC50 [1] |
| --- | --- | --- | --- | --- |
| 535.2 | – | COc1cccc(OC)c1-c1cc(C(=O)NC2(C(=O)O)C3CC4CC(C3)CC2C4)nn1-c1ccc(NCCCCCN(C)C)cc1C(C)C (stereo not shown) [II-3, 2-(5-(2,6-dimethoxyphenyl)-1-(4-((5-(dimethylamino)pentyl)amino)-2-isopropylphenyl)-1H-pyrazole-3-carboxamido)adamantane-2-carboxylic acid] | – | – |
| 293.0 | higher binding affinity | COc1cccc(OC)c1-c1cc(C(=O)NC2(C(=O)O)C3CC4CC(C3)CC2C4)nn1-c1ccc(NCCCCN(C)C)cc1C(C)C (stereo not shown) [II-2, 2-(5-(2,6-dimethoxyphenyl)-1-(4-((4-(dimethylamino)butyl)amino)-2-isopropylphenyl)-1H-pyrazole-3-carboxamido)adamantane-2-carboxylic acid] | – | 0.158 nM |

| Compound | Relative Binding Affinity | binding affinity compared to comparator compound C-1 or C-3 (single radioligand competitive binding assay) | IC50 (read-out: IC50 (nM) Mean) | IC50 [1] |
| --- | --- | --- | --- | --- |
| CC(=O)N[C@@H](CCCCNC(=O)CN1CCN(CC(=O)O)CCN(CC(=O)O)CCN(CC(=O)O)CC1)C(=O)N1CCC[C@H]1C(=O)N(C)[C@@H](CCCNC(=N)N)C(=O)N[C@@H](CCCNC(=N)N)C(=O)N1CCC[C@H]1C(=O)N[C@@H](Cc1ccc(O)cc1)C(=O)N[C@H](C(=O)N[C@@H](CC(C)C)C(=O)O)C(C)(C)C [Compound C-1, reference compound] | 1.00 | – | 40.3 nM | 40.4 nM |
